The test system of one test is dopamine neurons. As to the kind of experiment: Survival of TH-positive dopamine neurons in dissociated midbrain floor cultures. Type of test: cell-based, mouse. The settings on record: for Fold change of survived neurons compared to neurons grown without growth factors: data of Table 3 divided by values of no factor. In outline: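 Dissociated E13.5 NMRI mouse midbrain floor neurons grown five days in DMEM/F12 with N2, with polypeptides at a range of concentrations, GDNF (100 ng/ml), or nothing. TH-immunopositive neurons were counted by imaging. Values are a percentage of GDNF-maintained TH-positive neurons, as mean ± SEM from at least three independent cultures.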

A further test deals with ER stressed SCG neurons. As to the kind of experiment: Survival of tunicamycin-treated (ER stressed) SCG sympathetic neurons after microinjection. Type of test: cell-based, mice. The settings on record: for survived neurons as % compared to neurons grown in the presence of NGF: microinjected into cytoplasm, CDNF (400); for Fold change of survived neurons compared to neurons injected with PBS: data of Table 1 divided by values of PBS. In outline: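 Newborn mouse SCG neurons grown 5-6 days with 30 ng/ml NGF, then microinjected with CDNF (FL or C-terminal) plasmids (10 ng/ul, EGFP reporter) or proteins (200 ng/ul, Dextran Texas Red). Tunicamycin (2 μM) added next day. Fluorescent survivors counted blindly after 3 days as % of initial; compared with vector or PBS (ANOVA/Dunnett).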

Setting [1] is: Table 3B (FIG. 17), AVG, 1 ng/ml, 5 days.
Where [2] appears, read: Table 3B (FIG. 17), AVG, 10 ng/ml, 5 days.
Where [3] appears, read: Table 3B (FIG. 17), AVG, 100 ng/ml, 5 days.
Setting [4] is: Table 3B (FIG. 17), AVG, 1000 ng/ml, 5 days.
The mark [5] stands for this setting: Table 1B (FIG. 16), exp1, tunicamycin 2 μM, counted after 3 days.
Where [6] appears, read: Table 1B (FIG. 16), exp2, tunicamycin 2 μM, counted after 3 days.
Setting [7] is: Table 1B (FIG. 16), exp3, tunicamycin 2 μM, counted after 3 days.

Regarding “KYEKTLDLASVDLRKMRVAELKQILHSWGEECRACAEKTDYVNLIQELAP (listed as Homo sapiens) [pep7]”, the “survived neurons as % compared to neurons grown in the presence of GDNF” value (shortened to “survived neurons as % … of GDNF”) with dopamine neurons (Table 3A (FIG. 15), AVG, 1 ng/ml, 5 days) was 70.12 % GDNF; in the test on dopamine neurons (Table 3A (FIG. 15), AVG, 10 ng/ml, 5 days) it was 76.13 % GDNF; in the test with dopamine neurons (Table 3A (FIG. 15), AVG, 100 ng/ml, 5 days), 72.36 % GDNF; in the test on dopamine neurons (Table 3A (FIG. 15), AVG, 1000 ng/ml, 5 days), 79.07 % GDNF; in the test with dopamine neurons (Table 3A (FIG. 15), exp1, 1 ng/ml, 5 days), 67.76 % GDNF; in the test with dopamine neurons (Table 3A (FIG. 15), exp1, 10 ng/ml, 5 days), 63.47 % GDNF. In addition, the “survived neurons as % … of GDNF” value with dopamine neurons (Table 3A (FIG. 15), exp1, 100 ng/ml, 5 days) came out at 62.89 % GDNF; in the test on dopamine neurons (Table 3A (FIG. 15), exp1, 1000 ng/ml, 5 days), 64.02 % GDNF; in the test with dopamine neurons (Table 3A (FIG. 15), exp2, 1 ng/ml, 5 days), 73.36 % GDNF; with dopamine neurons (Table 3A (FIG. 15), exp2, 10 ng/ml, 5 days), 83.50 % GDNF; in the test on dopamine neurons (Table 3A (FIG. 15), exp2, 100 ng/ml, 5 days), 79.82 % GDNF; with dopamine neurons (Table 3A (FIG. 15), exp2, 1000 ng/ml, 5 days) it was 86.37 % GDNF. Moreover, the “survived neurons as % … of GDNF” value in the test on dopamine neurons (Table 3A (FIG. 15), exp3, 1 ng/ml, 5 days) came out at 69.24 % GDNF; with dopamine neurons (Table 3A (FIG. 15), exp3, 10 ng/ml, 5 days) it was 81.41 % GDNF; with dopamine neurons (Table 3A (FIG. 15), exp3, 100 ng/ml, 5 days) it was 74.38 % GDNF; with dopamine neurons (Table 3A (FIG. 15), exp3, 1000 ng/ml, 5 days), 86.80 % GDNF. Also, the “Fold change of survived neurons compared to neurons grown without growth factors” value is recorded as 1.14 fold with dopamine neurons (Table 4, AVG, 1 ng/ml); 1.23 fold in the test with dopamine neurons (Table 4, AVG, 10 ng/ml); 1.17 fold with dopamine neurons (Table 4, AVG, 100 ng/ml); 1.28 fold in the test on dopamine neurons (Table 4, AVG, 1000 ng/ml); 1.19 fold in the test on dopamine neurons (Table 4, exp1, 1 ng/ml); 1.11 fold in the test with dopamine neurons (Table 4, exp1, 10 ng/ml). In addition, the “Fold change of survived neurons compared to neurons grown without growth factors” value with dopamine neurons (Table 4, exp1, 100 ng/ml) was found to be 1.10 fold; in the test with dopamine neurons (Table 4, exp1, 1000 ng/ml) it was 1.12 fold; in the test with dopamine neurons (Table 4, exp2, 1 ng/ml) it was 1.16 fold; with dopamine neurons (Table 4, exp2, 10 ng/ml), 1.32 fold; with dopamine neurons (Table 4, exp2, 100 ng/ml) it was 1.27 fold; in the test on dopamine neurons (Table 4, exp2, 1000 ng/ml), 1.37 fold. Besides, the “Fold change of survived neurons compared to neurons grown without growth factors” value with dopamine neurons (Table 4, exp3, 1 ng/ml) is on record as 1.07 fold; with dopamine neurons (Table 4, exp3, 10 ng/ml), 1.26 fold; in the test on dopamine neurons (Table 4, exp3, 100 ng/ml) it was 1.15 fold; in the test with dopamine neurons (Table 4, exp3, 1000 ng/ml), 1.34 fold. The “survived neurons as % compared to neurons grown in the presence of NGF” value (shortened to “survived neurons as % … of NGF”) is on record as 80.76 % NGF in the test with ER stressed SCG neurons (Table 1A (FIG. 14), AVG of exp1-2, tunicamycin 2 μM); 76.67 % NGF with ER stressed SCG neurons (Table 1A (FIG. 14), exp1, tunicamycin 2 μM, counted after 3 days); 84.85 % NGF in the test with ER stressed SCG neurons (Table 1A (FIG. 14), exp2, tunicamycin 2 μM, counted after 3 days). Moreover, the “Fold change of survived neurons compared to neurons injected with PBS” value is 2.19 Fold to PBS in the test on ER stressed SCG neurons (Table 2, AVG); 2.24 Fold to PBS in the test on ER stressed SCG neurons (Table 2, exp1); 2.14 Fold to PBS with ER stressed SCG neurons (Table 2, exp2).

As for “TLDLASVDLRKMRVAEPKQILHSWGEECRACAEKTDYVNLIQELAPKYA (Mutated C-CDNF peptide) [pep12]”, the “survived neurons as % … of GDNF” value in the test on dopamine neurons (setting [1]) came to 68.57 % GDNF; in the test with dopamine neurons (setting [2]), 83.1 % GDNF; with dopamine neurons (setting [3]), 87.93 % GDNF; in the test on dopamine neurons (setting [4]), 84.16 % GDNF. In addition, the “protection of dopaminergic neurons in culture (result in words)” value with dopamine neurons (added to the culture medium, 5 days, TH-positive neurons counted) is listed as “best protective effect”. In addition, the entries for the “survived neurons as % … of NGF” value with ER stressed SCG neurons (setting [5]), in the test on ER stressed SCG neurons (setting [6]) and in the test with ER stressed SCG neurons (setting [7]) were 86.74 % NGF, 86.15 % NGF and 70.17 % NGF, respectively. For the same sequence, the “rescue of ER stressed SCG neurons (result in words)” value with ER stressed SCG neurons (protein or peptide microinjected into the cytoplasm, tunicamycin 2 μM, living fluorescent neurons counted after 3 days) is given as “rescue”.

In the case of “TLDLASVDLRKMRVAELKQILHSWGEECRARACAEKTDYVNLIQELAPKYA (Mutated C-CDNF peptide) [pep11]”, the “survived neurons as % … of GDNF” value with dopamine neurons (setting [1]) stood at 59.60 % GDNF; in the test on dopamine neurons (setting [2]), 60.76 % GDNF; in the test with dopamine neurons (setting [3]) it was 69.28 % GDNF; in the test on dopamine neurons (setting [4]) it was 70.22 % GDNF. For the same sequence, the “survived neurons as % … of NGF” value in the test on ER stressed SCG neurons (setting [5]) came out at 46.25 % NGF; in the test on ER stressed SCG neurons (setting [6]), 48.61 % NGF; in the test with ER stressed SCG neurons (setting [7]) it was 44.64 % NGF.

Values taken from patent publication US12479895B2, “C-terminal CDNF and MANF fragments, pharmaceutical compositions comprising same and uses thereof” (MyNeuroCure Oy, priority 2018, dated 2025).
